Experimental findings from the SangsterLogP compilation are described below.

One may read the logP as a log measure of how a compound divides between an organic and an aqueous phase. High values mean higher lipophilicity, low ones lower lipophilicity. For `c1ccc2[nH]ccc2c1`, the logP worked out at 2.14.
`O=C(O)c1ccccc1Nc1ccccc1` had a lipophilicity (logP) of 4.36.
The molecule `CC(C)(S)[C@@H](N)C(=O)O` had a logP of -1.78.
`c1ccc2cc3c(ccc4ccccc43)cc2c1`: the logP worked out at 5.76.
Take `COC(=O)C(C#N)=NNc1cc(C(F)(F)F)ccc1Cl`: the logP was 4.42.
The molecule `O=C(O)COc1ccccc1I` registered a logP of 2.33.
Consider `Nc1cc(N2CCCCC2)nc(N)[n+]1[O-]`, for which the logP turned out to be 1.24.
With `CC(N)C(=O)O` (racemic), the logP was -2.96.
The same measure for `Oc1ccc(Br)cc1Br`: 3.22; for `CC=CC`: 2.33.
To `CCCCC(CC)CN` (stereo unspecified) belongs 2.82; to `CCCCCCCCCC`, 5.01.
`CNC(=O)Oc1cccc(OC)c1`: the lipophilicity (logP) is 1.3.
Consider `Cc1ccc(S(N)(=O)=O)cc1`, for which the log partition coefficient (logP) was determined as 0.82.
To `O=C1NS(=O)(=O)c2ccccc21` belongs 0.91.
`CCCCN(CCCC)N=O` yielded a logP of 2.63.
In turn, `O=S(c1ccccc1)c1ccccc1` returned a logP of 2.06.
In turn, `OC1OC[C@@H](O)[C@@H](O)[C@H]1O` (stereo partly specified) displayed a logP of -2.32.
Molecule `BrCBr` yielded a logP of 1.7.
For the molecule `O=[N+]([O-])c1ccc2ccc[n+]([O-])c2c1`, the logP worked out at 0.36.
To `CCc1ccc(O)cc1` belongs 2.58; to `C(=C\c1ccccc1)/c1ccccc1`, 4.81; to `CCCCNC(=O)NS(=O)(=O)c1ccc(N)cc1`, 1.01.
As to `CC(C)NCC(O)c1ccc([N+](=O)[O-])cc1` (stereo unspecified), the logP turned out to be 1.28.
In turn, `CC(N)C(O)c1ccccc1` (stereo unspecified) displayed a logP of 0.67.
As to `CC(=O)C=Cc1ccccc1`, the logP came out at 2.07.
The same measure for `CC(C)C(=O)C(C#N)=NNc1cc(C(F)(F)F)ccc1Cl`: 5.31; for `NC12CC3CC(CC(C3)C1)C2`: 2.44; for `Nc1cccc(S(N)(=O)=O)c1`: -0.38.
As for `O=C(NC(O)Cc1ccc([N+](=O)[O-])cc1)C(F)(F)F` (stereo unspecified), the logP was determined as 1.46.
`COC(=O)c1ccccc1O`: the logP was 2.55.
Take `Fc1ccccc1F`: the logP is 2.37.
The molecule `O=c1[nH]c2ccccc2n1CCCN1CCC(n2c(=O)[nH]c3cc(Cl)ccc32)CC1` had a logP of 3.9.
As for `C[C@@H]1C[C@H]2[C@@H]3CCC4=CC(=O)C=C[C@]4(C)[C@@]3(F)[C@@H](O)C[C@]2(C)[C@@]1(O)C(=O)CO`, the logP is 1.83.
`Cc1ccc(N=C=S)cc1` showed a logP of 3.92.
`Nc1ccc(C(=O)NCC(=O)O)cc1` registered a logP of -0.89.
In turn, `CC1(C)SC2C(NC(=O)C(N)c3ccc(O)cc3)C(=O)N2C1C(=O)O` (stereo unspecified) registered a logP of 0.87.
The same measure for `NC(=O)c1ncccc1O`: 0.65.
To `Nc1ccc2ccccc2c1` belongs 2.28.
On to `Cc1ccc(Cc2cnc(NCCSCc3ccc(C(C)(C)N)o3)[nH]c2=O)cn1`, for which the logP was 2.06.
`NCCc1ccccc1` gave a logP of 1.41.
For the molecule `NC(N)=S`, the logP was -1.08.
Molecule `CCCl` returned a logP of 1.43.
Molecule `CSc1nncc(=O)n1N` came in with a lipophilicity (logP) of 0.38.
Take `OC[C@H]1O[C@@H](n2cnc3c(O)ncnc32)[C@H](O)[C@@H]1O`: the logP was -2.1.
Consider `Oc1cc(O)cc(O)c1`, for which the logP amounted to 0.16.
Molecule `Cc1cn([C@H]2C[C@H](O)[C@@H](CO)O2)c(=O)[nH]c1=O` returned a logP of -0.93.
`O=c1ccn([C@H]2CC[C@@H](CO)O2)c(=O)[nH]1` came in with a log partition coefficient (logP) of -1.
As to `O=C(NC(CO)C(O)c1ccc([N+](=O)[O-])cc1)C(Br)(Br)Br` (stereo unspecified), the logP was found to be 2.17.
`S=C1NCCN1` yielded a logP of -0.66.
`CC[C@@H]1C(=O)OC[C@@H]1Cc1cncn1C`: the logP was found to be 0.12.
`CCC(C)n1nnc2ccccc21` (stereo unspecified) returned a logP of 2.31.
In turn, `O=C(O)COc1ccc(F)cc1` displayed a logP of 1.64.
`Nc1ccccc1[N+](=O)[O-]` gave a logP of 1.85.
Consider `Nc1ccc(S(=O)(=O)Nc2ncccn2)cc1`, for which the logP was -0.09.
For the molecule `COC(=O)C(C#N)=NNc1ccccc1`, the logP amounted to 2.59.
Consider `ClCCl`, for which the logP came to 1.25.
`CSc1ccc2c(c1)N(CCC1CCCCN1C)c1ccccc1S2` (stereo unspecified) showed a logP of 5.9.
For the molecule `C=CCC1(CC)C(=O)NC(=O)NC1=O`, the logP was 0.95.
Molecule `NS(=O)(=O)c1ccccc1[N+](=O)[O-]` had a logP of 0.34.
Molecule `Nc1ccn([C@H]2C[C@H](O)[C@@H](CO)O2)c(=O)n1` had a logP of -1.77.
Molecule `Cc1ccc([N+](=O)[O-])cc1` came in with a logP of 2.37.
The same measure for `O=C(Oc1ccccc1)c1ccccc1`: 3.59; for `CNc1ccccc1`: 1.66.
Consider `CCCCOc1ccc(CC(=O)NO)cc1`, for which the logP amounted to 2.08.
To `Nc1nc(N)c2ncn([C@H]3C[C@H](O)[C@@H](CO)O3)c2n1` belongs -0.52; to `NS(=O)(=O)c1ccc(O)cc1`, 0.06.
With `Nc1nc(N)c2nc(-c3ccccc3)c(N)nc2n1`, the logP worked out at 0.98.
The same measure for `CCCNCC(C)C`: 2.07; for `CNc1ccc([N+](=O)[O-])cc1`: 2.04; for `CC(C)(C)NC[C@H](O)COc1ccccc1C1CCCC1`: 4.15.
As to `O=[N+]([O-])c1cc2ccccc2[n+]([O-])c1`, the logP was 0.56.
As to `O=[N+]([O-])c1ccccc1`, the logP turned out to be 1.85.
The same measure for `CCc1ccccn1`: 1.69.
The same measure for `CCc1cccc(OCC(=O)O)c1`: 2.25; for `CC(=O)C(C#N)=NNc1ccc(Cl)c(Cl)c1`: 4.56; for `c1ccoc1`: 1.34.
Molecule `c1cc2c3c(cccc3c1)CC2` returned a logP of 3.92.
`O=C(O)c1ccc([N+](=O)[O-])cc1` returned a logP of 1.89.
The molecule `CCc1ccc(S(N)(=O)=O)cc1` displayed a logP of 1.31.
For the molecule `CC(=O)C(C#N)=NNc1cc(C(F)(F)F)ccc1Cl`, the logP is 5.08.
In turn, `c1ccc2nc3ccccc3cc2c1` registered a logP of 3.4.
The same measure for `CN/C(=C\[N+](=O)[O-])NCCSCc1ccc(CN(C)C)o1`: 0.27.
The molecule `CC(C)n1nnc2ccccc21` registered a logP of 1.98.
In the case of `CN1CCN(CCCN2c3ccccc3Sc3ccc(C(F)(F)F)cc32)CC1`, the logP was determined as 5.03.
To `c1cncc([C@@H]2CCCCN2)c1` belongs 0.97.
`Nc1ccc2cc3ccc(N)cc3nc2c1` showed a logP of 1.83.
Molecule `O=CNc1ccccc1` came in with a logP of 1.15.
`Clc1cccc2cccnc12` displayed a logP of 2.44.
As for `OCC(O)CO`, the logP was -1.76.
`NC(=O)c1ccc([N+](=O)[O-])cc1` had a logP of 0.82.
With `c1ccc(-c2cccc(-c3ccccc3)n2)cc1`, the logP is 4.82.
In the case of `Nc1nc2c(ncn2COCCO)c(=O)[nH]1`, the logP is -1.56.
Regarding `CCNC`, the logP is 0.15.
Consider `[O-][n+]1ccc(Cl)c2ccccc21`, for which the logP turned out to be 1.08.
The same measure for `NS(=O)(=O)c1ccc(Cl)cc1`: 1.15.
In the case of `C#CC`, the log partition coefficient (logP) turned out to be 0.94.
`CCCOC(=O)c1ccc(S(N)(=O)=O)cc1`: the logP is 1.75.
`CCOC(=O)C(C#N)=NNc1cc(Cl)c(Cl)c(Cl)c1` showed a logP of 5.03.
The molecule `Nc1ccc(C(=O)O)cc1Cl` yielded a logP of 1.52.
As for `Clc1ccccc1-c1ccccc1`, the logP came to 4.53.
To `CC(C)C[C@H](N)C(=O)O` belongs -1.52; to `Nc1nc2c(ncn2[C@H]2C[C@H](O)[C@@H](CO)O2)c(=O)[nH]1`, -1.3; to `CNCc1ccccc1`, 1.52.
For the molecule `O=c1ccn([C@H]2C[C@H](F)[C@@H](CO)O2)c(=O)[nH]1`, the logP was -0.49.
Consider `CC(C)(C)NCC(O)COc1nsnc1N1CCOCC1` (stereo unspecified), for which the logP was 1.83.
Molecule `C/C=N/O` gave a logP of -0.13.
Regarding `O=C1CCCO1`, the logP is -0.64.
To `O=C(O)c1cccnc1` belongs 0.36; to `CC1CC(C)C(=O)C(C(O)CC2CC(=O)NC(=O)C2)C1` (stereo unspecified), 0.55.
`CCC(=O)O` came in with a logP of 0.33.
For the molecule `CNC(=O)Oc1cc(C)cc(C)c1`, the logP was found to be 2.23.
Regarding `O=C(NC(CO)C(O)c1ccc([N+](=O)[O-])cc1)C(F)F` (stereo unspecified), the logP stood at 0.42.
Molecule `O=[N+]([O-])c1ccc2c(ccc[n+]2[O-])c1` had a logP of 0.39.
As for `O=C(O)c1cccc(I)c1`, the logP was 3.13.
On to `CCCC(C)(COC(N)=O)COC(N)=O`, for which the logP stood at 0.7.
Regarding `COc1ccc(CC(=O)O)cc1`, the logP turned out to be 1.42.
As to `Cc1ccccc1N(C)C`, the logP was determined as 2.85.
Regarding `CCOC(=O)Cc1ccccc1`, the logP was 2.28.
The same measure for `Cl[C@H]1[C@H](Cl)[C@@H](Cl)[C@@H](Cl)[C@H](Cl)[C@H]1Cl`: 3.72; for `CC(=O)Nc1ccc(Cl)cc1`: 2.09; for `Nc1ncnc2c1ncn2[C@H]1C[C@H](O)[C@@H](CO)O1`: -0.55.
`c1ncncn1`: the logP is -0.73.
`C1CO1`: the logP was -0.3.
On to `O=C(O)c1cccc([N+](=O)[O-])c1`, for which the logP is 1.83.
`CC(=O)c1ccc(OCC(=O)O)cc1` registered a logP of 0.87.
As for `COC(=O)C(C#N)=NNc1cccc(C(F)(F)F)c1`, the logP turned out to be 3.78.
To `Cc1ncc(CO)c(CO)c1O` belongs -0.77; to `c1ccc2cc3ccccc3cc2c1`, 4.45; to `c1cnccn1`, -0.26.
As for `CC(=O)C(C#N)=NNc1ccc(Cl)cc1`, the logP was 4.1.
As for `Cc1ccccc1S(N)(=O)=O`, the logP was 0.84.
Molecule `OCCCCCc1ccncc1` registered a logP of 1.39.
`Cc1cnccn1` showed a logP of 0.21.
Molecule `N#Cc1ccc(/C=C/NC=O)cc1` displayed a logP of 1.62.
`CCN(C)C` had a logP of 0.7.
In the case of `CCC=Cc1ccccc1[N+](=O)[O-]`, the logP turned out to be 2.86.
The molecule `C1CCOC1` gave a logP of 0.46.
Molecule `O=C(O)CSc1ccccc1` registered a logP of 1.91.
Take `Nc1ccccc1-c1ccccc1`: the logP amounted to 2.84.
As to `OCc1ccccc1O`, the logP is 0.73.
